Assay results reported in patent US8710233B2 (Gruenenthal GmbH, priority 2005, dated 2014).
Read-outs that look alike come from different tables or passages of the source.

What was measured:
Assay type in all cases: cell-based
VR1/TRPV1 receptor = VR1/TRPV1 receptor (Homo sapiens, UniProt Q8NER1); test: IC50 (human) after pH stimulus; conditions: for inhibition at 1 µM: ne = no effect
vanilloid receptor (VR1) = target: T1, vanilloid receptor (VR1) (Homo sapiens, UniProt Q8NER1); test: FLIPR Ca2+ influx assay on CHO K1 cells transfected with the VR1 gene (pharmacological method II)
T1 construct: expressed in transfected cells; host or cells: CHO K1 cells (ECACC), stably transfected

[1] = target: T2, vanilloid receptor 1 (VR1/TRPV1) of the rat species (Rattus norvegicus, UniProt O35433); test: FLIPR Ca2+ influx assay on rat dorsal root ganglia cells (pharmacological method I)
T2 construct: The spinal column is removed from decapitated rats; from tissue; host or cells: primary cells dissociated from rat dorsal root ganglia
Summary of the method: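 Primary rat dorsal root ganglion cells loaded with 2 μM Fluo-4, Ca2+ influx read on FLIPR as peak fluorescence. Triplicates, at least 3 independent experiments.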

[2] = table 4, capsaicin, read-out: Ki (human) Cap.
[3] = table 4, capsaicin, read-out: Ki (rat) Cap.
[4] = read-out: inhibition in percent, IC50 (human) after pH stimulus
[5] = Ki (rat) Cap., table 4, capsaicin
[6] = Table 2, displacement of capsaicin (100 nM), Cheng-Prusoff, read-out: Ki (human)
[7] = Table 2, displacement of capsaicin (100 nM), Cheng-Prusoff, read-out: Ki (rat)

T2 sequence (O35433 whole entry): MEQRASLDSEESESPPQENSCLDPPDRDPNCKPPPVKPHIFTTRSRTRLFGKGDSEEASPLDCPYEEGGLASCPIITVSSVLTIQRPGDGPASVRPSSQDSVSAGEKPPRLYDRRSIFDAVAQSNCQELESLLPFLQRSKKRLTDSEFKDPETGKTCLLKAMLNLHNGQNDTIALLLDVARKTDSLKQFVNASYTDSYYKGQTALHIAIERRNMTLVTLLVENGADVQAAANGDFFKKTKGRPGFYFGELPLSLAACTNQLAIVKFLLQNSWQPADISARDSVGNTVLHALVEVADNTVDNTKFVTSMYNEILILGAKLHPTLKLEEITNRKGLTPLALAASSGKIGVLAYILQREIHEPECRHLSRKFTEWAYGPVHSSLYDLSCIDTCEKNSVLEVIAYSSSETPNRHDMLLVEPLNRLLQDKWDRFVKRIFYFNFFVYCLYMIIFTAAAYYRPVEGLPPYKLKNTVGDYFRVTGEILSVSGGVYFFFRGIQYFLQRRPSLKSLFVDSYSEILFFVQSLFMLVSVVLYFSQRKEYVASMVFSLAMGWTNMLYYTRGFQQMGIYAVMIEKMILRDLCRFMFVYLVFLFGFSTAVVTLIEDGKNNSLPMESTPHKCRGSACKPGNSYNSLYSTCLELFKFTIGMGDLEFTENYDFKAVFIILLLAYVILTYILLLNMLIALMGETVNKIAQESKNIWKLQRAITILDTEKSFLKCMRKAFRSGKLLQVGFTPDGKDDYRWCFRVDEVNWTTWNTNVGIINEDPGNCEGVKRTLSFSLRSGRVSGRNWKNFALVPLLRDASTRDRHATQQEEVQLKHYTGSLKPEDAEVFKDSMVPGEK
T1 sequence (Q8NER1 whole entry): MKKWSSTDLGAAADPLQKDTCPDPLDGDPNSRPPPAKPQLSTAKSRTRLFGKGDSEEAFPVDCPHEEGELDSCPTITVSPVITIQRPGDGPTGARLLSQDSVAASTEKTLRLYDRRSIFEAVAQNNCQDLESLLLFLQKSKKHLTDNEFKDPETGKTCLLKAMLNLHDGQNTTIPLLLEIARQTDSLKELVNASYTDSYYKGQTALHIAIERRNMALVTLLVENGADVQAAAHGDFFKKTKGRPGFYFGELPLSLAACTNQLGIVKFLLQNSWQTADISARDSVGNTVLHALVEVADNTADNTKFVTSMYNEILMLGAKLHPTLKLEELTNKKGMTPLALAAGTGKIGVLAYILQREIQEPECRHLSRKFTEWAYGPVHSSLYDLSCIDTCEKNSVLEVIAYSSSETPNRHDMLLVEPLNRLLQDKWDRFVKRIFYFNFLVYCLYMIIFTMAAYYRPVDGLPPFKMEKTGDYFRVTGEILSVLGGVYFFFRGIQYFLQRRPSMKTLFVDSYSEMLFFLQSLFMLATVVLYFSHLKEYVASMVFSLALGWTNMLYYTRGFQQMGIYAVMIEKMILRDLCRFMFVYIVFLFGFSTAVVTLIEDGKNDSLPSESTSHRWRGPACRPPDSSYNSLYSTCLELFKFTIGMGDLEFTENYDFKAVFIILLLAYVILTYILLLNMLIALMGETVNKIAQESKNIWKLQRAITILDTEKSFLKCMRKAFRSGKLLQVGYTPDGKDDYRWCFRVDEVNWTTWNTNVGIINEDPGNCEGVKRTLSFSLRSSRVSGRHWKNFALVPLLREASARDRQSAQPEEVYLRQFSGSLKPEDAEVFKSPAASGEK
Sequence of VR1/TRPV1 receptor (Q8NER1 whole entry): as above

Row | Compound | IC50 (VR1/TRPV1 receptor; table 4) [nM] | Ki (vanilloid receptor (VR1); [2]) [nM] | Ki [1, 3] [nM] | also measured
1 | COCC1CCN(c2nc(C(F)(F)F)ccc2CNC(=O)C(C)c2ccc(NS(C)(=O)=O)c(F)c2)CC1 (centres unmarked) [Example 199, 2-(3-fluoro-4-methylsulfonamido-phenyl)-N-(4-methoxymethyl-6′-trifluoromethyl-3,4,5,6-tetrahydro-2H-[1,2′]bipyridinyl-3′-ylmethyl)-propionamide] | 31 | 1.4 | 1.6 | 
2 | Cc1cc(C(C)C(=O)NCc2ccc(C(F)(F)F)nc2OCc2ccccc2)ccc1NS(C)(=O)=O (centres unmarked) [Example 204, N-(2-benzyloxy-6-trifluoromethyl-pyridin-3-ylmethyl)-2-(4-methylsulfonamido-3-methyl-phenyl)-propionamide] | 148 | 4 | 1.6 | 
3 | Cc1cccc(N2CCN(c3cc(C(F)(F)F)ccc3CNC(=O)C(C)c3ccc(NS(C)(=O)=O)c(F)c3)CC2)c1 (centres unmarked) [Example 247, 2-(3-fluoro-4-methylsulfonamido-phenyl)-N-[2-(4-m-tolyl-piperazin-1-yl)-4-trifluoromethyl-benzyl]-propionamide] |  | 1.8 | 0.5 | inhibition at 0.1 µM (VR1/TRPV1 receptor; [4]): 36%; inhibition at 1 µM (VR1/TRPV1 receptor; [4]): 69%
4 | CC(C)OC1CCN(c2nc(C(F)(F)F)ccc2CNC(=O)C(C)c2ccc(NS(C)(=O)=O)c(F)c2)CC1 (centres unmarked) [Example 162, 2-(3-fluoro-4-methylsulfonamido-phenyl)-N-(4-isopropoxy-6′-trifluoromethyl-3,4,5,6-tetrahydro-2H-[1,2′]bipyridinyl-3′-ylmethyl)-propionamide] |  | 3 | 1.6 | inhibition at 1 µM (VR1/TRPV1 receptor; [4]): 58%
5 | CC(C(=O)NCc1ccc(C(F)(F)F)nc1N1CCN(c2ccc(C(F)(F)F)cc2)CC1)c1ccc(NS(C)(=O)=O)c(F)c1 (centres unmarked) [Example 222, 2-(3-fluoro-4-methylsulfonamido-phenyl)-N-{6-trifluoromethyl-2-[4-(4-trifluoromethyl-phenyl)-piperazin-1-yl]-pyridin-3-ylmethyl}propionamide] | 39.2 | 3.4 | 2.4 | 
6 | CC(C(=O)NCc1ccc(C(F)(F)F)nc1N1CCC(C#N)(c2ccccc2)CC1)c1ccc(NS(C)(=O)=O)c(F)c1 (centres unmarked) [Example 285, N-(4-cyano-4-phenyl-6′-trifluoromethyl-3,4,5,6-tetrahydro-2H-[1,2′]bipyridinyl-3′-ylmethyl)-2-(3-fluoro-4-methylsulfonamido-phenyl)-propionamide] | 377 | 3.5 | 4.5 | 
7 | CC(C)COc1nc(C(F)(F)F)ccc1CNC(=O)C(C)c1ccc(NS(C)(=O)=O)c(F)c1 (centres unmarked) [Example 95, 2-(3-fluoro-4-methylsulfonamido-phenyl)-N-(2-isobutoxy-6-trifluoromethyl-pyridin-3-ylmethyl)-propionamide] | 52.6 | 0.5 | 0.8 | 
8 | CC(C(=O)NCc1ccc(C(F)(F)F)nc1N1CCC(=O)CC1)c1ccc(NS(C)(=O)=O)c(F)c1 (centres unmarked) [Example 227] |  | 91 | 348 | inhibition at 1 µM (VR1/TRPV1 receptor; [4]): 7%; inhibition at 10 µM (VR1/TRPV1 receptor; @ 10 μM, read-out: inhibition in percent, IC50 (human) after pH stimulus): 51%
9 | CC(C)Oc1nc(C(F)(F)F)ccc1CNC(=O)C(C)c1ccc(NS(C)(=O)=O)c(F)c1 (centres unmarked) [Example 20, 2-(3-fluoro-4-(methylsulfonamido)phenyl)-N-((2-isopropoxy-6-(trifluoromethyl)pyridin-3-yl)methyl)propanamide] |  |  |  | IC50 (VR1/TRPV1 receptor; Table 2): 93 nM; Ki (vanilloid receptor (VR1); [6]): 2.1 nM; Ki ([1]; Ki (rat), Table 2, displacement of capsaicin (100 nM), Cheng-Prusoff): 5.4 nM
10 | CC1CCC(Oc2nc(C(F)(F)F)ccc2CNC(=O)C(C)c2ccc(NS(C)(=O)=O)c(F)c2)CC1 (centres unmarked) [Example 157, 2-(3-fluoro-4-methylsulfonamido-phenyl)-N-[2-(4-methyl-cyclohexyloxy)-6-trifluoromethyl-pyridin-3-ylmethyl]-propionamide] | 43.1 | 2.9 |  | Ki [1, 5]: 1.3 nM
11 | C[C@@H](C(=O)NCc1ccc(C(F)(F)F)nc1N1CCCCC1)c1ccc(NS(C)(=O)=O)c(F)c1 [Example 11, (R)-2-(3-fluoro-4-(methylsulfonamido)phenyl)-N-((2-(piperidin-1-yl)-6-(trifluoromethyl)pyridin-3-yl)methyl)propanamide] |  |  |  | IC50 (VR1/TRPV1 receptor; Table 2): 46.7 nM; Ki (vanilloid receptor (VR1); [6]): 0.3 nM; Ki [1, 7]: 1.1 nM
12 | CC(C(=O)NCc1ccc(C(F)(F)F)nc1N1CCCC1)c1ccc(NS(C)(=O)=O)c(F)c1 (centres unmarked) [Example 13, 2-(3-fluoro-4-(methylsulfonamido)phenyl)-N-((2-(pyrrolidin-1-yl)-6-(trifluoromethyl)pyridin-3-yl)methyl)propanamide] |  |  |  | IC50 (VR1/TRPV1 receptor; Table 2): 211 nM; Ki (vanilloid receptor (VR1); [6]): 0.6 nM; Ki [1, 7]: 3.8 nM
13 | CC(C(=O)NCc1ccc(C(F)(F)F)nc1N1CCC(OC(=O)C(C)(C)C)CC1)c1ccc(NS(C)(=O)=O)c(F)c1 (centres unmarked) [Example 226, 2,2-dimethyl-propionic acid 3′-{[2-(3-fluoro-4-methylsulfonamido-phenyl)-propionylamino]-methyl}-6′-trifluoromethyl-3,4,5,6-tetrahydro-2H-[1,2′]bipyridinyl-4-yl ester] | 45.2 | 2 | 1.5 | 
14 | CC(C)COc1nc(C(F)(F)Cl)ccc1CNC(=O)C(C)c1ccc(NS(C)(=O)=O)c(F)c1 (centres unmarked) [Example 208, N-[6-(chloro-difluoro-methyl)-2-isobutoxy-pyridin-3-ylmethyl]-2-(3-fluoro-4-methylsulfonamido-phenyl)-propionamide] | 38.6 | 0.6 | 0.5 | 
15 | COc1ccc(N2CCN(c3cc(C(F)(F)F)ccc3CNC(=O)C(C)c3ccc(NS(C)(=O)=O)c(F)c3)CC2)cc1 (centres unmarked) [Example 249, 2-(3-fluoro-4-methylsulfonamido-phenyl)-N-{2-[4-(4-methoxy-phenyl)-piperazin-1-yl]-4-trifluoromethyl-benzyl}-propionamide] |  | 1.6 | 0.2 | inhibition at 0.1 µM (VR1/TRPV1 receptor; [4]): 31%; inhibition at 1 µM (VR1/TRPV1 receptor; [4]): 70%
16 | COc1ccc(-c2nc(C(F)(F)F)ccc2CNC(=O)C(C)c2ccc(NS(C)(=O)=O)c(F)c2)cc1F (centres unmarked) [Example 254, 2-(3-fluoro-4-methylsulfonamido-phenyl)-N-[2-(3-fluoro-4-methoxy-phenyl)-6-trifluoromethyl-pyridin-3-ylmethyl]-propionamide] |  | 4.2 | 1.3 | inhibition at 0.1 µM (VR1/TRPV1 receptor; [4]): 19%; inhibition at 1 µM (VR1/TRPV1 receptor; [4]): 63%

The remaining compounds from weak to strong by Ki (vanilloid receptor (VR1); [2]), led by results:

Row | IC50 (VR1/TRPV1 receptor; table 4) [nM] | Ki (vanilloid receptor (VR1); [2]) [nM] | Ki [1, 3] [nM] | Compound | also measured
17 | 612 | 1.3 | 2.5 | CCOC1CCN(c2nc(C(F)(F)F)ccc2CNC(=O)C(C)c2ccc(NS(C)(=O)=O)c(F)c2)CC1 (centres unmarked) [Example 228, N-(4-ethoxy-6′-trifluoromethyl-3,4,5,6-tetrahydro-2H-[1,2′]bipyridinyl-3′-ylmethyl)-2-(3-fluoro-4-methylsulfonamido-phenyl)-propionamide] | 
18 |  | 1.2 | 1.7 | CC1CCN(c2nc(C(F)(F)F)ccc2CNC(=O)C(C)c2ccc(NS(C)(=O)=O)cc2)CC1 (centres unmarked) [Example 262, 2-(4-methylsulfonamido-phenyl)-N-(4-methyl-6′-trifluoromethyl-3,4,5,6-tetrahydro-2H-[1,2′]bipyridinyl-3′-ylmethyl)-propionamide] | inhibition at 0.1 µM (VR1/TRPV1 receptor; [4]): 6%; inhibition at 1 µM (VR1/TRPV1 receptor; [4]): 58%
19 | 61 | 1.1 | 0.4 | Cc1cc(C(C)C(=O)NCc2ccc(C(F)(F)F)nc2N2CCC(C(F)(F)F)CC2)ccc1NS(C)(=O)=O (centres unmarked) [Example 195, N-(4,6′-bis-trifluoromethyl-3,4,5,6-tetrahydro-2H-[1,2′]bipyridinyl-3′-ylmethyl)-2-(4-methylsulfonamido-3-methyl-phenyl)-propionamide] | 
20 | 101 | 0.9 | 1.3 | CC(C(=O)NCc1ccc(C(F)(F)F)cc1N1CCC(c2ccc(F)cc2)CC1)c1ccc(NS(C)(=O)=O)c(F)c1 (centres unmarked) [Example 255, 2-(3-fluoro-4-methylsulfonamido-phenyl)-N-{2-[4-(4-fluoro-phenyl)-piperidin-1-yl]-4-trifluoromethyl-benzyl}-propionamide] | 
21 | 22.8 | 0.8 | 0.3 | CCCCCCOc1nc(C(F)(F)Cl)ccc1CNC(=O)C(C)c1ccc(NS(C)(=O)=O)c(F)c1 (centres unmarked) [Example 180, N-[6-(chloro-difluoro-methyl)-2-hexyloxy-pyridin-3-ylmethyl]-2-(3-fluoro-4-methylsulfonamido-phenyl)-propionamide] | 
22 | 19.7 | 0.7 |  | CC(C(=O)NCc1ccc(C(F)(F)F)nc1OCC1CCCCC1)c1ccc(NS(C)(=O)=O)c(F)c1 (centres unmarked) [Example 270, N-(2-cyclohexylmethoxy-6-trifluoromethyl-pyridin-3-ylmethyl)-2-(3-fluoro-4-methylsulfonamido-phenyl)-propionamide] | Ki [1, 5]: 0.5 nM
23 |  | 0.7 | 0.4 | C[C@H](C(=O)NCc1ccc(C(F)(F)F)nc1-c1ccc(F)c(Cl)c1)c1ccc(NS(C)(=O)=O)c(F)c1 [Example 120, (S)-N-[2-(3-chloro-4-fluoro-phenyl)-6-trifluoromethyl-pyridin-3-ylmethyl]-2-(3-fluoro-4-methylsulfonamido-phenyl)-propionamide] | inhibition at 1 µM (VR1/TRPV1 receptor; [4]): 51%
24 | 10.5 | 0.6 | 0.7 | CCCCN(CCCC)c1nc(C(F)(F)F)ccc1CNC(=O)C(C)c1ccc(NS(C)(=O)=O)c(F)c1 (centres unmarked) [Example 183, N-(2-dibutylamino-6-trifluoromethyl-pyridin-3-ylmethyl)-2-(3-fluoro-4-methylsulfonamido-phenyl)-propionamide] | 
